The values that follow come from ChEMBL document CHEMBL3751672, “PPAR agonists based on stilbene and its bioisosteres: biological evaluation and docking studies” (Medchemcomm, 2015).

Holding throughout (assay type): cell-based
Experiment [1] concerns the target T1, Peroxisome proliferator-activated receptor alpha (Homo sapiens) (UniProt Q07869).
T1 sequence (whole entry): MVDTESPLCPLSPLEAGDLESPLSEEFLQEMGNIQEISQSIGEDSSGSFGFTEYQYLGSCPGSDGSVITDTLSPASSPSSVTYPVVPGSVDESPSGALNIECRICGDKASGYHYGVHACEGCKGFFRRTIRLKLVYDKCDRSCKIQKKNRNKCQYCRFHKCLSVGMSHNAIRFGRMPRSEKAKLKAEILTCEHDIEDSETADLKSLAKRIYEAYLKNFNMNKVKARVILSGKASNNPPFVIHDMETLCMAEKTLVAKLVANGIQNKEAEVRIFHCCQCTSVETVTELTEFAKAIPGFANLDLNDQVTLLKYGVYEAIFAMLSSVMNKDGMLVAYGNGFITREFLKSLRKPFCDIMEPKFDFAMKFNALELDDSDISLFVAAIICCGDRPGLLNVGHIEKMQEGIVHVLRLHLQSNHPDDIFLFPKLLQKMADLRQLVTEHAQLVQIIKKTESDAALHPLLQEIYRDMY
In words: Transactivation of human PPARalpha expressed in HEK293 cells at 150 uM incubated for 18 hrs by dual luciferase reporter gene assay relative to gemfibrozil.

Experiment [2] deals with T2, Peroxisome proliferator-activated receptor alpha (Homo sapiens, UniProt Q07869).
T2 sequence (Q07869 whole entry): T1 sequence (whole entry)
In words: Transactivation of human PPARalpha expressed in HEK293 cells incubated for 18 hrs by dual luciferase reporter gene assay.

Experiment [3] deals with T1, Peroxisome proliferator-activated receptor alpha (Homo sapiens). In words: Agonist activity at PPARalpha in human HepG2 cells assessed as increase in CPT1A gene expression at 100 uM incubated for 24 hrs by real time quantitative PCR method relative to gemfibrozil.
Experiment [4] shares this target. In words: Agonist activity at PPARalpha in human HepG2 cells assessed as increase in CPT1A gene expression at 10 uM incubated for 24 hrs by real time quantitative PCR method relative to gemfibrozil.
Experiment [5] has the same target. In words: Agonist activity at PPARalpha in human HepG2 cells assessed as increase in CPT1A gene expression incubated for 24 hrs by real time quantitative PCR method.
Experiment [6] shares this target. In words: Agonist activity at PPARalpha in human HepG2 cells assessed as increase in CPT1A gene expression at 10 uM incubated for 24 hrs by real time quantitative PCR method.
For experiment [7] the target is unchanged. In words: Agonist activity at PPARalpha in human HepG2 cells assessed as increase in CPT1A gene expression at EC50 incubated for 24 hrs by real time quantitative PCR method.

The source made the active and inactive calls. The rule behind the calls is not given here.

In experiment [1], `CC(C)(CCCOc1ccc(/C=C/c2ccc(Cl)cc2Cl)cc1)C(=O)O` had an Efficacy of 32%.
In turn, `COc1ccc(/C=C/c2ccc(OCCCC(C)(C)C(=O)O)cc2)cc1` came in with an EC50 in experiment [2] of 28.4 µM. For the same molecule, the Efficacy in experiment [1] amounted to 164%.
On to `CC(C)(CCCOc1ccc(/C=C/c2ccc3ccccc3c2)cc1)C(=O)O`, for which, in experiment [2], it took 90 µM to reach a half-maximal effect (EC50). This molecule yielded an Efficacy in experiment [1] of 123%.
`CC(C)(CCCOc1ccc(/C=C/c2ccc(N)cc2)cc1)C(=O)O` gave an Efficacy in experiment [1] of 29%.
On the same count and under the same terms, as for `CC(C)(CCCOc1ccc(/C=C/c2ccc(C#N)cc2)cc1)C(=O)O`, the figure is 23%.
For the molecule `CC(C)(CCCOc1ccc(/C=C/c2ccccc2)cc1)C(=O)O`, the results for the fold change (FC) in experiment [3], in experiment [4] and in experiment [1] were 6, 2 and 2, respectively. The Activity entry in experiment [5] is “Dose-dependent effect”.
As for `CC(C)(CCCOc1ccc(/C=C/c2ccc(Cl)cc2)cc1)C(=O)O`, in experiment [2], a half-maximal response (EC50) required 0.8 µM. In experiment [3], the fold change (FC) is 2. In addition, the outcome in experiment [6] was Active. In addition, the Activity entry in experiment [5] was “Dose-dependent effect”. Besides, in experiment [1], the Efficacy was 227% and the fold change (FC) turned out to be 2.
Turning to `CC(C)(CCCOc1ccc(/C=C/c2ccc(C(F)(F)F)cc2)cc1)C(=O)O`, the midpoint of the response in experiment [2], the EC50, lay at 0.76 µM. For the same molecule, in experiment [3], the fold change (FC) amounted to 2. Further, in experiment [6], the outcome was Active. The Activity result in experiment [5] is “Dose-dependent effect”. In experiment [1], this molecule showed an Efficacy of 205% and a fold change (FC) of 2.
`Cc1ccc(/C=C/c2ccc(OCCCC(C)(C)C(=O)O)cc2)cc1` registered an EC50 in experiment [2] of 3.3 µM. In experiment [1], this molecule came in with an Efficacy of 118%.
In turn, `CC(C)c1ccc(/C=C/c2ccc(OCCCC(C)(C)C(=O)O)cc2)cc1` displayed an Efficacy in experiment [1] of 17%.
On to `CC(C)(CCCOc1ccc(/C=C/c2ccc(Cl)cc2Cl)cc1Cl)C(=O)O`, for which, in experiment [1], the Efficacy came out at 20%.
As to `CC(C)(CCCOc1ccc(/C=C/c2ccncc2)cc1)C(=O)O`, the EC50 in experiment [2] was determined as 103 µM. The Efficacy in experiment [1] was found to be 115%.
Turning to `Cc1ccc(C)c(OCCCC(C)(C)C(=O)O)c1`, in experiment [7], the result was Active.
For `CC(C)(CCCOc1ccc(/C=C/c2ccsc2)cc1)C(=O)O`, a half-maximal response in experiment [2] (EC50) required 3.8 µM. The Efficacy in experiment [1] was determined as 152%.
The molecule `CC(C)(CCCOc1ccc(/C=C/c2ccccc2)cc1Cl)C(=O)O` had an Efficacy in experiment [1] of 46%.
